Experimental data: ChEMBL document CHEMBL3886955, “Pyrrolidine derivatives and their use as complement pathway modulators” (2016)
pIC50: −log10 of the molar value.

Biological target: Complement factor D (Homo sapiens, UniProt P00746)
Test: In Vitro Assay: Method 1: Recombinant human factor D (expressed in E. coli and purified using standard methods) at 10 nM concentration is incubated with test compound at various concentrations for 1 hour at room temperature in 0.1 M Hepes buffer, pH 7.5, containing 1 mM MgCl2, 1 M NaCl and 0.05% CHAPS. A synthetic substrate Z-Lys-thiobenzyl and 2,4-dinitrobenzenesulfonyl-fluoresceine are added to final concentrations of 200 μM and 25 μM, respectively. The increase in fluorescence is recorded at excitation of 485 nm and emission at 535 nm in a microplate spectrofluorimeter. IC50 values are calculated from percentage of inhibition of complement factor D-activity as a function of test compound concentration.

Complement factor D, sequence (P00746 whole entry): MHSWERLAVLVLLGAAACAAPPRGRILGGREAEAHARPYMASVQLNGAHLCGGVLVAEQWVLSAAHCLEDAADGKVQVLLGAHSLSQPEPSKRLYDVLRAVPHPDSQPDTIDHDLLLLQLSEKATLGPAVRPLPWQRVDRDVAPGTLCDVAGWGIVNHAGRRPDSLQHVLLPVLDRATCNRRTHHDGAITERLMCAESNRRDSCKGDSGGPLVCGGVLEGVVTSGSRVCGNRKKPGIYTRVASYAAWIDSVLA

pIC50: 7.62
SMILES: CC(C)=C(F)CNC(=O)[C@@H]1C[C@H]2C[C@H]2N1C(=O)Nc1cn(C(N)=O)c2ccccc12
